Entries after “also recorded” stand apart in the source; their conditions may differ.

The nature of data set [1]: in vitro. The format is in vitro ADME, human. Conditions: human. How it is done:
(§1) The route of transport of γ-EV across Caco-2 monolayer cells was determined using 1 mM γ-EV transported for 2 h, following the same protocol as mentioned in Section 2.4. However, in this case, four transport inhibitors were used prior to γ-EV addition in the apical layer, to elucidate the mechanism of transport. Theaflavin 3′-gallate (TF3′G) (20 μM), a cell tight-junction enhancer, was added to the EMEM growth medium 24 h before the experiment. Wortmannin (a transcytosis inhibitor, 1 μM), cytochalasin D (a cell tight-junction disruptor, 0.5 μg/mL), and Gly-Sar (PepT1 transporter inhibitor, 25 mM) were added 30 min before γ-EV addition in the HBSS buffer (pH 6.5). After the treatment was over, the apical and basal layers were collected, and the concentration of γ-EV was analyzed and represented via Papp. For this study, some of the replicate inserts were used for harvesting the Caco-2 cells for analyzing the tight-junction proteins via Western immunoblotting, while some of the inserts were used for visualizing the tight-junction proteins through immunofluorescence.
(§2) LC-MS/MS was used to detect the γ-EV content after the transport study. The instrument used was the Shimadzu LC system (Nexera X2, Columbia, MD, USA), interfaced with a Sciex QTRAP 6500+ mass spectrometer (Redwood City, CA, USA), equipped with a TurboIonSpray (TIS) electrospray ion source (ESI). […] The mobile phases and gradient used were as previously described. Analyst software (version 1.6.3, Redwood City, CA, USA) was used for the sample acquisition control and data analysis. The manufacturer’s recommendations were used for tuning and calibration of the SCIEX QTRAP 6500+ mass spectrometer. The parameters for the ESI operation were as follows: 5500 V ion spray voltage; 500 °C source temperature; ion source gas 1, gas 2, and curtain gas, as 50, 50, and 25, respectively; and collision gas, high. The multiple reaction monitoring (MRM) transitions and the compound settings were previously optimized and described in [11]. An external standard curve, containing different concentrations of the peptide (γ-EV diluted in water), was prepared for the absolute quantification of the peptide. The standards were run alongside the samples (γ-EV in HBSS buffer) in triplicate. The linear range of the standard curve was from 0.016 to 10 μM, with a linear regression slope R^2 of 1 with a CV of <8% for all the dilution points.

The subject of a further data set is PepT1. Nature of the data set: in vitro. The format is in vitro ADME, human. Conditions: human, Caco-2, Papp after Gly-Sar pretreatment. How it is done: as §1, §2
In the next data set the test system is Caco-2 monolayer cells. Nature of the data set: in vitro. The data set is classed as in vitro ADME, human. Conditions: Caco-2. As to the method: as §1, §2
A further data set can be described thus: MTT cell viability assay. The data set is classed as cell-based, human. The conditions noted are these: human, Caco-2 cells (differentiated, grown for 15 days), 10 mM, 2 h, read-out: survival rate (cell viability). As to the method:
(§3) A clear-bottom 96-well black plate (VWR, #29444-008) was seeded with Caco-2 cells (40,000 cells/well) and grown for 15 days in EMEM media (20% FBS and 1% Pen-Strep) to achieve differentiation of the cells. The MTT assay kit (Abcam, #ab211091) was used to test the cell-viability assay following the manufacturer’s guidelines, as described in the earlier study. For the time-course study, a concentration of 1 mM γ-EV was used for determining the cell toxicity, by incubating it on the Caco-2 cells for 2, 4, and 6 h. For the dose study, the cell toxicity of γ-EV was tested for different doses, such as 2.5, 3, 4, 5, and 10 mM, after incubating the peptide on the cells for 2 h. After the treatment period, the cell media was discarded and replaced with a mixture of 50 μL of the MTT reagent and 50 μL of serum-free EMEM media. After the incubation period of 3 h at 37 °C, the MTT-supplemented media was replaced with 150 μL of MTT solvent. Following that, the plates were incubated on an orbital shaker (200 rpm, 37 °C) (MaxQ 4450, Thermo Fischer Scientific, Waltham, MA, USA) for 15 min, in dark, after which the absorbance of the plate was read at 590 nm (Synergy H1 microplate reader, BioTek, Winooski, VT, USA). The background control readings were subtracted from each of the wells and the cell-viability percentage (%) was calculated using the formula cell viability % = (sample/control) × 100, where the control was cells with no γ-EV treatment, and the sample was the γ-EV treated cells.

Data set [2] relates to Caco-2 cells. As to the kind of experiment: MTT cell viability assay. The format is cell-based, human. As to the method:
as §3
(Tetrazolium dyes change colour on reduction, which living cells bring about.)

Data set [3] deals with Caco-2 monolayer. Further details: method as in PMID 32786865. The conditions noted are these: 1 mM γ-EV across Caco-2 cells, previous study; cited from earlier work.
The subject of data set [4] is Caco-2 monolayer.
Data set [5] can be described thus: in vitro. The conditions noted are these: human, Caco-2.
Data set [6] has as its system Caco-2 cells. Conditions: cytochalasin D 0.5 μg/mL, across Caco-2 cells; cited from earlier work.

Turning to `CC(C)[C@H](NC(=O)CC[C@H](N)C(=O)O)C(=O)O` [γ-EV, γ-glutamyl valine], the Papp (as a rule, the rate of passage across a membrane or cell layer, normalised by area and donor concentration) at 2 h, 1 mM stood at 0.875 ×10⁻⁶ cm/s in “in vitro [1]” (Caco-2, Papp after TF3′G pretreatment); 4.36 ×10⁻⁶ cm/s in “in vitro [1]” (Caco-2, Papp after cytochalasin D pretreatment); 0.798 ×10⁻⁶ cm/s with PepT1; 1.56 ×10⁻⁶ cm/s in the data set “in vitro [5]”. Also, the “decrease of Papp by Gly-Sar vs control” value with Caco-2 monolayer cells worked out at 48%. Moreover, the viability (usually a read-out of living cells in per cent, often relative to untreated cells) at 2 h, 10 mM in the data set “MTT cell viability assay” is 21%. In addition, the cytotoxicity entry in the data set with Caco-2 cells [2] (1 mM, exposure 4 and 6 h) was “not toxic; also recorded: No cytotoxicity”; in the data set with Caco-2 cells [2] (10 mM, 2 h), “cytotoxic”; in the data set on Caco-2 cells [2] (concentrations up to 5 mM, 2 h), “nontoxic; also recorded: not toxic; also recorded: not cytotoxic”. Further, in the data set with Caco-2 monolayer [3], the “apparent permeability coefficient (Papp)” value was 1.56 ± 0.7 ×10⁻⁶ cm/s. The Papp range in the data set with Caco-2 monolayer [4] was 1.5–2.5 × 10^−6. For the same compound, in the data set on Caco-2 monolayer [4], the “change in rate of transport (Papp) vs 1 mM dose” value is “did not have a significant change”. Further, the Papp A→B (commonly how fast a substance crosses the layer from the apical side) at 2 h, 5 mM in “in vitro [5]” was 2.5 ×10⁻⁶ cm/s. Also, the Papp A→B at 4 h, 1 mM in the data set “in vitro [5]” was found to be 0.678 ×10⁻⁶ cm/s. Moreover, the Papp A→B at 6 h, 1 mM in “in vitro [5]” was determined as 0.746 ×10⁻⁶ cm/s. Moreover, the Papp at 2 h, 5 mM in the data set “in vitro [5]” came to 2.49 ×10⁻⁶ cm/s.
As for HLPLP, the “increase of peptide transport by cytochalasin D” value with Caco-2 cells [6] is on record as 65%.

The record behind these values is publication PMC8145144, “Transport of Dietary Anti-Inflammatory Peptide, γ-Glutamyl Valine (γ-EV), across the Intestinal Caco-2 Monolayer” (Nutrients, 2021).
